Laboratory results: the NIST ThermoML archive (doi:10.1021/je049556i)
Numbers after ± are expanded uncertainties.

Assays:
[1] = 101 kPa, Liquid
[2] = xn = mol fraction of the nth substance listed; conditions: 101 kPa, Liquid

CCCO [propan-1-ol]
[1]
Conditions | mass density [kg/m3] | viscosity [mPa·s]
298.15 K | 799.6 ± 2.4 | 1.943 ± 0.076
303.15 K | 794.64 ± 2.4 | 1.725 ± 0.068
308.15 K | 790.53 ± 2.4 | 1.537 ± 0.061

CCO [ethanol]
[1]
Conditions | mass density [kg/m3] | viscosity [mPa·s]
298.15 K | 785.06 ± 2.3 | 1.083 ± 0.044
303.15 K | 780.74 ± 2.4 | 0.99 ± 0.04
308.15 K | 776.48 ± 2.4 | 0.895 ± 0.037

CC1OC(C)OC(C)O1 (stereo not drawn) [2,4,6-trimethyl-1,3,5-trioxane] + CCCO
[2]
Conditions | mass density, 298.15 K [kg/m3] | mass density, 303.15 K [kg/m3] | mass density, 308.15 K [kg/m3] | viscosity, 298.15 K [mPa·s] | viscosity, 303.15 K [mPa·s] | viscosity, 308.15 K [mPa·s]
x1 = 0.0286 | 809.7 ± 2.4 | 804.77 ± 2.4 | 800.59 ± 2.4 | 1.861 ± 0.072 | 1.653 ± 0.065 | 1.474 ± 0.058
x1 = 0.0484 | 816.43 ± 2.4 | 811.5 ± 2.4 | 807.28 ± 2.4 | 1.807 ± 0.07 | 1.606 ± 0.063 | 1.433 ± 0.056
x1 = 0.0743 | 824.91 ± 2.4 | 820 ± 2.4 | 815.72 ± 2.4 | 1.74 ± 0.067 | 1.548 ± 0.06 | 1.383 ± 0.054
x1 = 0.101 | 833.29 ± 2.4 | 828.4 ± 2.4 | 824.06 ± 2.4 | 1.676 ± 0.064 | 1.492 ± 0.058 | 1.334 ± 0.052
x1 = 0.197 | 860.73 ± 2.3 | 855.87 ± 2.4 | 851.32 ± 2.4 | 1.481 ± 0.056 | 1.322 ± 0.05 | 1.187 ± 0.046
x1 = 0.3124 | 888.86 ± 2.2 | 883.99 ± 2.3 | 879.22 ± 2.4 | 1.312 ± 0.049 | 1.175 ± 0.044 | 1.061 ± 0.04
x1 = 0.4052 | 908.29 ± 2.2 | 903.38 ± 2.2 | 898.44 ± 2.3 | 1.219 ± 0.045 | 1.096 ± 0.041 | 0.994 ± 0.037
x1 = 0.527 | 930.22 ± 2.1 | 925.2 ± 2.2 | 920.07 ± 2.2 | 1.145 ± 0.041 | 1.034 ± 0.037 | 0.942 ± 0.034
x1 = 0.5689 | 936.94 ± 2.1 | 931.88 ± 2.1 | 926.69 ± 2.2 | 1.129 ± 0.04 | 1.021 ± 0.037 | 0.931 ± 0.034
x1 = 0.7214 | 958.42 ± 1.9 | 953.17 ± 2 | 947.75 ± 2.1 | 1.105 ± 0.038 | 1.001 ± 0.035 | 0.915 ± 0.032
x1 = 0.8026 | 968.19 ± 1.9 | 962.8 ± 2 | 957.27 ± 2 | 1.105 ± 0.038 | 1.002 ± 0.035 | 0.915 ± 0.032
x1 = 0.8948 | 978.07 ± 1.8 | 972.51 ± 1.9 | 966.87 ± 1.9 | 1.109 ± 0.037 | 1.005 ± 0.034 | 0.915 ± 0.032
x1 = 1 | 988.35 ± 1.8 | 982.64 ± 1.8 | 976.44 ± 1.9 | 1.107 ± 0.037 | 1.001 ± 0.034 | 0.907 ± 0.031

CCCO [propan-1-ol] + CC1OC(C)OC(C)O1
[2], x2 = 0
Conditions | mass density [kg/m3] | viscosity [mPa·s]
298.15 K | 799.6 ± 2.4 | 1.943 ± 0.076
303.15 K | 794.64 ± 2.4 | 1.725 ± 0.068
308.15 K | 790.53 ± 2.4 | 1.537 ± 0.061

CC1OC(C)OC(C)O1 (stereo not drawn) [2,4,6-trimethyl-1,3,5-trioxane]
[1]
Conditions | mass density [kg/m3] | viscosity [mPa·s]
298.15 K | 988.35 ± 1.8 | 1.107 ± 0.037
303.15 K | 982.64 ± 1.8 | 1.001 ± 0.034
308.15 K | 976.44 ± 1.9 | 0.907 ± 0.031

CC1OC(C)OC(C)O1 (stereo not drawn) [2,4,6-trimethyl-1,3,5-trioxane] + CCCCO
[2]
Conditions | mass density, 298.15 K [kg/m3] | mass density, 303.15 K [kg/m3] | mass density, 308.15 K [kg/m3] | viscosity, 298.15 K [mPa·s] | viscosity, 303.15 K [mPa·s] | viscosity, 308.15 K [mPa·s]
x1 = 0.0289 | 814.71 ± 2.4 | 810.8 ± 2.4 | 806.91 ± 2.4 | 2.46 ± 0.095 | 2.164 ± 0.084 | 1.917 ± 0.075
x1 = 0.0582 | 823.46 ± 2.4 | 819.5 ± 2.4 | 815.51 ± 2.4 | 2.311 ± 0.089 | 2.037 ± 0.078 | 1.809 ± 0.07
x1 = 0.0804 | 829.94 ± 2.4 | 825.93 ± 2.4 | 821.87 ± 2.4 | 2.204 ± 0.084 | 1.948 ± 0.075 | 1.732 ± 0.067
x1 = 0.0999 | 835.53 ± 2.4 | 831.47 ± 2.4 | 827.35 ± 2.4 | 2.116 ± 0.08 | 1.873 ± 0.072 | 1.668 ± 0.064
x1 = 0.194 | 861.02 ± 2.3 | 856.78 ± 2.3 | 852.47 ± 2.4 | 1.756 ± 0.066 | 1.568 ± 0.059 | 1.406 ± 0.053
x1 = 0.3007 | 886.93 ± 2.2 | 882.65 ± 2.3 | 878.35 ± 2.4 | 1.471 ± 0.055 | 1.324 ± 0.049 | 1.197 ± 0.045
x1 = 0.4056 | 909.58 ± 2.2 | 905 ± 2.2 | 900.34 ± 2.3 | 1.302 ± 0.048 | 1.177 ± 0.043 | 1.07 ± 0.04
x1 = 0.5091 | 928.91 ± 2.1 | 924.2 ± 2.2 | 919.2 ± 2.2 | 1.219 ± 0.044 | 1.103 ± 0.04 | 1.006 ± 0.037
x1 = 0.6218 | 946.67 ± 2 | 941.75 ± 2.1 | 936.55 ± 2.1 | 1.193 ± 0.042 | 1.077 ± 0.038 | 0.983 ± 0.035
x1 = 0.6932 | 956.21 ± 2 | 951.23 ± 2 | 945.98 ± 2.1 | 1.193 ± 0.041 | 1.075 ± 0.038 | 0.98 ± 0.035
x1 = 0.8331 | 972.07 ± 1.9 | 966.65 ± 1.9 | 960.87 ± 2 | 1.184 ± 0.04 | 1.064 ± 0.036 | 0.969 ± 0.034
x1 = 0.9165 | 980.1 ± 1.9 | 974.5 ± 1.9 | 968.65 ± 1.9 | 1.143 ± 0.038 | 1.03 ± 0.035 | 0.938 ± 0.032
x1 = 1 | 988.35 ± 1.8 | 982.64 ± 1.8 | 976.44 ± 1.9 | 1.107 ± 0.037 | 1.001 ± 0.034 | 0.907 ± 0.031

CCCCO [butan-1-ol] + CC1OC(C)OC(C)O1
[2], x2 = 0
Conditions | mass density [kg/m3] | viscosity [mPa·s]
298.15 K | 805.84 ± 2.4 | 2.618 ± 0.1
303.15 K | 802 ± 2.4 | 2.297 ± 0.089
308.15 K | 798.2 ± 2.4 | 2.032 ± 0.08

CCO [ethanol] + CC1OC(C)OC(C)O1
[2], x2 = 0
Conditions | mass density [kg/m3] | viscosity [mPa·s]
298.15 K | 785.06 ± 2.3 | 1.083 ± 0.044
303.15 K | 780.74 ± 2.4 | 0.99 ± 0.04
308.15 K | 776.48 ± 2.4 | 0.895 ± 0.037

CC1OC(C)OC(C)O1 (stereo not drawn) [2,4,6-trimethyl-1,3,5-trioxane] + CCO
[2]
Conditions | mass density, 298.15 K [kg/m3] | mass density, 303.15 K [kg/m3] | mass density, 308.15 K [kg/m3] | viscosity, 298.15 K [mPa·s] | viscosity, 303.15 K [mPa·s] | viscosity, 308.15 K [mPa·s]
x1 = 0.0372 | 802.48 ± 2.3 | 798.21 ± 2.4 | 793.84 ± 2.4 | 1.071 ± 0.043 | 0.979 ± 0.04 | 0.886 ± 0.036
x1 = 0.0801 | 820.65 ± 2.3 | 816.3 ± 2.4 | 811.97 ± 2.4 | 1.059 ± 0.042 | 0.966 ± 0.039 | 0.876 ± 0.035
x1 = 0.1299 | 839.52 ± 2.3 | 835.19 ± 2.4 | 830.81 ± 2.4 | 1.045 ± 0.041 | 0.952 ± 0.038 | 0.866 ± 0.035
x1 = 0.1885 | 859.12 ± 2.3 | 854.68 ± 2.4 | 850.28 ± 2.4 | 1.031 ± 0.04 | 0.938 ± 0.037 | 0.855 ± 0.034
x1 = 0.2589 | 879.57 ± 2.3 | 875.01 ± 2.3 | 870.45 ± 2.4 | 1.016 ± 0.039 | 0.924 ± 0.036 | 0.844 ± 0.033
x1 = 0.3433 | 900.45 ± 2.2 | 895.77 ± 2.3 | 890.94 ± 2.4 | 1.003 ± 0.038 | 0.912 ± 0.035 | 0.835 ± 0.032
x1 = 0.4485 | 922.04 ± 2.1 | 917.27 ± 2.2 | 912.16 ± 2.3 | 0.994 ± 0.037 | 0.903 ± 0.034 | 0.828 ± 0.031
x1 = 0.5823 | 944.05 ± 2 | 939.04 ± 2.1 | 933.74 ± 2.2 | 0.995 ± 0.036 | 0.904 ± 0.033 | 0.829 ± 0.03
x1 = 0.6816 | 957.34 ± 2 | 952.18 ± 2 | 946.76 ± 2.1 | 1.006 ± 0.035 | 0.915 ± 0.033 | 0.837 ± 0.03
x1 = 0.7582 | 966.15 ± 1.9 | 960.83 ± 2 | 955.25 ± 2 | 1.022 ± 0.036 | 0.929 ± 0.033 | 0.849 ± 0.03
x1 = 0.8003 | 970.54 ± 1.9 | 965.15 ± 2 | 959.44 ± 2 | 1.033 ± 0.036 | 0.939 ± 0.033 | 0.857 ± 0.03
x1 = 0.8452 | 974.98 ± 1.9 | 969.45 ± 1.9 | 963.6 ± 2 | 1.048 ± 0.036 | 0.951 ± 0.033 | 0.868 ± 0.03
x1 = 0.8932 | 979.38 ± 1.9 | 973.8 ± 1.9 | 967.86 ± 1.9 | 1.065 ± 0.036 | 0.967 ± 0.033 | 0.881 ± 0.031
x1 = 0.9446 | 983.9 ± 1.8 | 978.26 ± 1.9 | 972.13 ± 1.9 | 1.088 ± 0.036 | 0.986 ± 0.033 | 0.897 ± 0.031
x1 = 1 | 988.35 ± 1.8 | 982.64 ± 1.8 | 976.44 ± 1.9 | 1.107 ± 0.037 | 1.001 ± 0.034 | 0.907 ± 0.031

CCCCO [butan-1-ol]
[1]
Conditions | mass density [kg/m3] | viscosity [mPa·s]
298.15 K | 805.84 ± 2.4 | 2.618 ± 0.1
303.15 K | 802 ± 2.4 | 2.297 ± 0.089
308.15 K | 798.2 ± 2.4 | 2.032 ± 0.08
